Source: patent publication US7071168B2, “Anti-cancer compounds and methods related thereto” (The Regents of the University of Colorado, priority 1998, dated 2006)

Tests used:
[1] = test system: bradykinin response of isolated guinea pig ileum; test: Anti-bradykinin activity on isolated guinea pig ileum; settings: Table 1; higher numbers indicate higher potency
Outline: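 Bradykinin concentration-effect curves were run in the absence and presence of compound. Tissue: 25 mm terminal ileum from male Hartley guinea pigs fasted overnight, held at 1 g tension in O2/CO2-bubbled Krebs' solution after 1 h equilibration.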

[2] = test system: SCLC strain SHP-77; test: Colorimetric tetrazolium (MTT) assay for cell survival, SCLC strain SHP-77; assay type: cell-based, human; settings: Table 1; SHP-77, MTT, 4 days
Outline: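 MTT assay: cells seeded overnight, treated in triplicate across a concentration range for 4 days at 37 °C, 5% CO2. On day 5, MTT was added for 4 h; formazan was dissolved in acidified isopropanol and absorbance read.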

Substance	GPI: pA2 for bradykinin antagonist activity on isolated guinea pig ileum [1]	MTT: ED50 for killing of SCLC strain SHP-77 in vitro [2]
DArg-Arg-Pro-Hyp-Gly-Igl-Ser-DIgl-Oic-Arg-Eac-Eac-DArg-Arg-Pro-Hyp-Gly-Igl-Ser-DIgl-Oic-Arg [B10088]	7.1	4 µM
DArg-Arg-Pro-Hyp-Gly-Igl-Ser-DIgl-Oic-Arg-NH2 [B10062]	7.1	Inact
DDD-( DArg-Arg-Add-Ser-DIgl-Oic-Arg)2 [M862]	5.6	1.3 µM
DDD-(DArg-2Nal-Arg)2 [M508]	Inact	23 µM
DDD-(DArg-Arg-Add-Ser-DIgl-PFF-Arg)2 [M864]	Inact	1.8 µM
DDD-(DArg-Arg-Aud-DF5F-Oic-Arg)2 [M846]	7.1	2 µM
DDD-(DArg-Arg-Aud-DIgl-PFF-Arg)2 [M842]	Inact	1.4 µM
DDD-(DArg-Arg-Aud-DTic-Oic-Arg)2 [M790]	Inact	1.7 µM
DDD-(DArg-Arg-Aud-DTic-hPhe-Arg)2 [M770]	Inact	8 µM
DDD-(DArg-Arg-Aud-PaF(F5c)-Arg)2 [M728]	5.3	4 µM
DDD-(DArg-Arg-Aud-Pac-PaF(Fbz)-Arg)2 [M734]	5.3	1.8 µM
DDD-(DArg-Arg-Aud-Ser-DF5F-Oic-Arg)2 [M890]	5.5	1.7 µM
DDD-(DArg-Arg-Aud-Ser-DIgl-Oic-Arg)2 [M858]	6.3	4 µM
DDD-(DArg-Arg-Eac-Ser-DF5F-Oic-Arg)2 [M804]	7.7	7.3 µM
DDD-(DArg-Arg-Eac-Ser-DIgl-Oic-Arg)2 [M854]	5.9	7.3 µM
DDD-(DArg-Arg-Eac-Ser-DTic-Oic-Arg)2 [M794]	Inact	21 µM
DDD-(DArg-F5F-DArg)2 [M1036]	5.4	40 µM
DDD-(DArg-PFF-Arg)2 [M820]	Inact	43 µM
DDD-(DIgl-hPhe-Arg)2 [M776]	5	30 µM
DDD-(DPhe-hPhe-Arg)2 [M756]	5.2	18 µM
DDD-(Eac-Eac-Arg-DIgl-Oic-Arg)2 [B10200]	5.8	16 µM
DDD-(Lys-Ser-DF5F-Oic-Arg)2 [M808]	6.9	30 µM
DDD-(Pac-2Nal-DArg-NH2)2 [M504]	5.4	11 µM

Substance	GPI: pA2 for bradykinin antagonist activity on isolated guinea pig ileum [1]	MTT: ED50 for killing of SCLC strain SHP-77 in vitro [2]
DDD-(Pac-hPhe-Arg)2 [M746]	Inact	Inact
DDD-(p-ABz-hPhe-Arg)2 [M552]	Inact	Inact
DTP-(DArg-Arg-Eac-Ser-DF5F-Nc7G-Arg)2 [M1026]	6.9	70 µM
Dcg-F5F-Arg [M130]	4.8	20 µM
Dpa-PFF-Arg [M816]	4.6	52 µM
EGS-(DArg-Arg-Eac-Ser-DF5F-Nc7G-Arg)2 [M1030]	7.0	51 µM
EGS-(DArg-Arg-Pro-Hyp-Gly-Igl-Ser-DIgl-Oic-Arg)2 [B10252]	8.3	25 µM
F5c-DArg-Arg-Add-Ser-DIgl-Oic-Arg [M860]	5.4	6 µM
F5c-DArg-Arg-Aud-DIgl-PFF-Arg [M838]	5.1	7.4 µM
F5c-DArg-Arg-Aud-DIgl-hPhe-Arg [M774]	Inact	8 µM
F5c-DArg-Arg-Aud-DTic-Oic-Arg [M788]	5	9 µM
F5c-DArg-Arg-Aud-Ser-D5F5-Oic-Arg [M888]	6.6	12.5 µM
F5c-DArg-Arg-Aud-Ser-DIgl-Oic-Arg [M856]	5.4	21 µM
F5c-DArg-Arg-Eac-Ser-DF5F-Oic-Arg [M796]	6.5	31 µM
F5c-DArg-Arg-Eac-Ser-DIgl-Oic-Arg [M852]	5.9	Inact
F5c-DArg-Arg-Eac-Ser-DTic-Oic-Arg [M792]	4.9	>100 µM
F5c-DArg-Arg-Pro-Hyp-Gly-Igl-Ser-DIgl-Oic-Arg [B10238]	8.1	150 µM
F5c-DArg-Eac-2Nal-Arg [M696]	5.1	Inact
F5c-DArg-Eac-hPhe-Arg [M738]	5.3	Inact
F5c-F5F-Arg [M810]	4.6	40 µM
F5c-Gly-mABz-2Nal-Arg [M196]	5.1	Inact
F5c-Lys-Ser-DF5F-Oic-Arg [M802]	6.3	Inact
F5c-MBC-Arg [M528]	Inact	Inact
